Source: ChEMBL document CHEMBL4342426, “Structure-activity relationship of 4-azaindole-2-piperidine derivatives as agents against Trypanosoma cruzi” (Bioorg Med Chem Lett, 2020)
pIC50: −log10 of the molar value.

Key:
physchem = details: buffer, pH 7.4
Description: Lipophilicity, logD of compound at pH 7.4 by HPLC analysis

in vitro [1] = details: PAMPA
Description: Effective permeability of compound by PAMPA assay

in vitro [2] = details: human, MRC5 SV2 cells
Description: (§1) Cytotoxicity against human MRC5 SV2 cells assessed as reduction in cell viability incubated for 3 days by fluorimetry

Leishmania infantum = experiment: microbe, parasite or virus in culture; details: for pIC50: MHOM/MA(BE)/67/ITMAP263, 120 h; for IC90: MHOM/MA(BE)/67/ITMAP263, in Mus musculus, 120 h
Description: Antileishmanial activity against amastigote stage of Leishmania infantum MHOM/MA(BE)/67/ITMAP263 infected in mouse peritoneal macrophage assessed as parasite growth inhibition incubated for 5 days by Giemsa staining based assay

in vitro [3] = details: mouse, peritoneal macrophages
Description: (§2) Cytotoxicity against mouse peritoneal Macrophage cells assessed as reduction in cell viability incubated for 3 days by fluorimetry

cells = details: Homo sapiens, MRC-5 SV2, 72 h
Description: as §1

in vitro [4] = details: human, liver microsomes
Description: Metabolic stability in human liver microsomes assessed as intrinsic clearance at 0.5 uM incubated for 30 mins by LC-MS/MS analysis

Macrophage = experiment: cells; details: Mus musculus, 72 h
Description: as §2

Trypanosoma cruzi = experiment: microbe, parasite or virus in culture; details: Tulahuen CL2, MRC-5 SV2, 168 h
Description: Antitrypanosomal activity against Trypanosoma cruzi Tulahuen CL2 amastigotes infected in human MRC5 SV2 cells incubated for 7 days by chlorophenol red beta-D-galactopyranoside substrate based spectrophotometric assay

Trypanosoma brucei = experiment: microbe, parasite or virus in culture; details: Squib 427, 72 h
Description: Antitrypanosomal activity against Trypanosoma brucei Squib 427 assessed as reduction in parasite growth incubated for 72 hrs by resazurin dye based fluorimetric analysis

in vitro [5] = details: mouse, liver microsomes
Description: Metabolic stability in mouse liver microsomes assessed as intrinsic clearance at 0.5 uM incubated for 30 mins by LC-MS/MS analysis

[6] = test system: Trypanosoma brucei rhodesiense; experiment: microbe, parasite or virus in culture; details: STIB900, 72 h
Description: Antiprotozoal activity against Trypanosoma brucei rhodesiense STIB900 trypomastigotes incubated for 72 hrs by resazurin dye based fluorimetric analysis

logD (physchem)	Papp (in vitro [1]) [×10⁻⁶ cm/s]	IC90 at 72 h (in vitro [2]) [µM]	pIC50 (Leishmania infantum)	IC90 (Leishmania infantum) [µM]	IC90 at 72 h (in vitro [3]) [µM]	CLint scaled at 0.5 h, 0.5 µM (in vitro [4]) [mL/min/kg]	microsomal CLint at 0.5 h, 0.5 µM (in vitro [4]) [µL/min/mg]	pIC50 (Trypanosoma brucei)	IC90 (Trypanosoma brucei) [µM]	CLint scaled at 0.5 h, 0.5 µM (in vitro [5]) [mL/min/kg]	microsomal CLint at 0.5 h, 0.5 µM (in vitro [5]) [µL/min/mg]	pIC50 [6]	IC90 [6] [µM]	SMILES	pIC50 (cells)	pIC50 (Macrophage)	pIC50 (Trypanosoma cruzi)	IC90 (Trypanosoma cruzi) [µM]	CC50 at 72 h (in vitro [2]) [nM]
2.49	8.77	64	4.19	64	64	< 31.7	< 23	4.19	64	< 95	< 23	4.19	64	O=C(NCCc1nc2ncc(Cl)cc2[nH]1)c1ccccc1	4.19	4.19	4.19	64	
1.85	2.33	64	4.19	64	64	< 25	< 23	4.19	64	523	164	4.19	64	O=C(c1ccccn1)N1CCCC(c2cc3ncccc3[nH]2)C1 (stereo not drawn)	4.19	4.19	4.19	64	
4.15	4.86	64	4.19	64	64	201	61.9	4.19	64	13200	1370	4.19	64	O=C(c1ccccc1)N1CC=C(c2cc3ccccc3[nH]2)CC1	4.19	4.19	4.38	64	
		64	4.19	64	64			4.19	64			4.19	64	O=C(NCCc1nc2ccccc2[nH]1)c1ccccc1	4.19	4.19	4.19	64	
3.31	15.7	64	4.94	15.1	14.9	223	160	4.19	64	2050	498	4.23	64	CN(CC(O)c1cc2ncccc2n1S(=O)(=O)c1ccccc1)C(=O)c1ccccc1 (stereo not drawn)	4.19	4.95	4.19	64	
		64	4.34	60.5	59.7			4.19	64			4.19	64	O=S(=O)(c1ccccc1)N1CC=C(c2cc3ncccc3[nH]2)CC1	4.19	4.34	4.19	64	
		64	4.19	64	64			4.19	64			4.19	64	CC(C)(C)OC(=O)N1CCCC(O)(c2cc3ncccc3[nH]2)C1 (stereo not drawn)	4.19	4.19	4.19	64	
1.63	3.35 to 3.44	64	4.19	64	64			4.19	64			4.19	64	CCN(CCc1nc2ncccc2[nH]1)C(=O)c1ccccc1	4.19	4.19	4.19	64	
3.5	5.51	64	4.41	59	59.7	50.5 to 54.2	32.9	4.19	64	310 to 555	68.3 to 114	4.19	64	N#Cc1cnc2cc(C3CCCN(C(=O)c4cc(C(F)(F)F)no4)C3)[nH]c2c1 (stereo not drawn)	4.19	4.34	4.19	64	
		64	4.19	64	64			4.19	64			4.19	64	CC(=O)N1C=C(c2cc3ncccc3[nH]2)CCC1	4.19	4.19	4.19	64	
2.46		64	4.19	64	64	40.7	24.1	4.19	64	4900	980	4.19	64	CC(C)c1cc(C(=O)N2CCC(O)(c3cc4ncccc4[nH]3)CC2)on1	4.19	4.19	4.34	64	
3.24	6.13	64	4.19	64	64	≥ 25	< 23	4.19	64	> 963	301	4.19	64	O=C(CCc1nc2ncc(Cl)cc2[nH]1)Nc1cccc(F)c1	4.19	4.19	4.19	64	
2.81	5.97	64	4.19	64	64	< 33.3	< 23	4.19	64	516	120	4.19	64	O=C(CCc1nc2ncc(Cl)cc2[nH]1)Nc1ccccc1	4.19	4.19	4.19	64	
		64	4.19	64	64			4.19	64			4.19	64	CCCC(=O)N1CCCC(O)(c2cc3ncccc3[nH]2)C1 (stereo not drawn)	4.19	4.19	4.19	64	
2.13		64	4.19	64	64	143	94.4	4.19	64	1920	434	4.19	64	OC1(c2cc3ncccc3[nH]2)CCN(Cc2ccccc2)CC1	4.19	4.19	4.19	64	
2.13		64	4.19	64	64	52	31	4.19	64	956	193	4.19	64	O=C(c1ccccc1)N1CCC(O)(c2cc3ncccc3[nH]2)CC1	4.19	4.19	4.19	64	
1.24		64	4.19	64	64	< 31.3	< 23	4.19	64			4.19	64	O=C(c1cncnc1)N1CCCC(c2cc3ncccc3[nH]2)C1 (stereo not drawn)	4.19	4.19	4.19	64	
1.75	2.72	64	4.19	64	64			4.19	64			4.19	64	O=C(CCc1nc2ncccc2[nH]1)Nc1ccccc1	4.19	4.19	4.19	64	
														O=C(Cn1ccnc1[N+](=O)[O-])NCc1ccccc1 [BENZNIDAZOLE]			5.30 to 5.70		
														CC(=O)O[C@H]1C(=O)[C@@]2(C)[C@H]([C@H](OC(=O)c3ccccc3)[C@]3(O)C[C@H](OC(=O)[C@H](O)[C@@H](NC(=O)c4ccccc4)c4ccccc4)C(C)=C1C3(C)C)[C@]1(OC(C)=O)CO[C@@H]1C[C@@H]2O [PACLITAXEL]					< 10
														CC[C@]1(O)C[C@@H]2CN(CCc3c([nH]c4ccccc34)[C@@](C(=O)OC)(c3cc4c(cc3OC)N(C)[C@H]3[C@@](O)(C(=O)OC)[C@H](OC(C)=O)[C@]5(CC)C=CCN6CC[C@]43[C@@H]65)C2)C1 [VINBLASTINE]					< 10
